Results on 1 compound are retold here after patent US20060062758A1, “Tight junction modulator peptide PN159 for enhanced mucosal delivery of therapeutic compounds” (Nastech Pharmaceutical Comapny Inc., priority 2004, published 2006).

A word on the viability: it is a per cent measure of how many cells are alive, often set against a control. A lower viability goes with more harm to the cells.

The subject of data set [1] is EpiAirway™ Cell Membrane (mucosal epithelial cell layer). As to the kind of experiment: Permeation kinetics across the in vitro epithelial tissue model. The conditions noted are these: for Perm(x)/Perm(159) +/− SEM*: mean values from multiple repeats; for PTH1-34 permeation: 2 mg/ml PTH, pH 4.5. How it is done: The EpiAirway™ system was developed by MatTek Corp (Ashland, Mass.) as a model of the pseudostratified epithelium lining the respiratory tract. The epithelial cells are grown on porous membrane-bottomed cell culture inserts at an air-liquid interface, which results in differentiation of the cells to a highly polarized morphology. The apical surface is ciliated with a microvillous ultrastructure and the epithelium produces mucus (the presence of mucin has been confirmed by immunoblotting). The inserts have a diameter of 0.875 cm, providing a surface area of 0.6 cm^2. The cells are plated onto the inserts at the factory approximately three weeks before shipping. One “kit” consists of 24 units.
A. A “kit” of 24 EpiAirway™ units can routinely be employed for evaluating five different formulations, each of which is applied to quadruplicate wells. Each well is employed for determination of permeation kinetics (4 time points), transepithelial electrical resistance (TER). An additional set of wells is employed as controls, which are sham treated during determination of permeation kinetics, but are otherwise handled identically to the test sample-containing units for determinations of transepithelial resistance and viability.
B. In all experiments, the mucosal delivery formulation to be studied is applied to the apical surface of each unit in a volume of 100 μL, which is sufficient to cover the entire apical surface. An appropriate volume of the test formulation at the concentration applied to the apical surface (no more than 100 μL is generally needed) is set aside for subsequent determination of concentration of the active material by ELISA or other designated assay.
D. In order to minimize potential sources of error and avoid any formation of concentration gradients, the units are transferred from one 0.9 mL-containing well to another at each time point in the study. These transfers are made at the following time points, based on a zero time at which the 100 μL volume of test material was applied to the apical surface: 15 minutes, 30 minutes, 60 minutes, and 120 minutes.
F. At the completion of each time point, the medium is removed from the well from which each unit was transferred, and aliquotted into two tubes (one tube receives 700 μL and the other 200 μL) for determination of the concentration of permeated test material and, in the event that the test material is cytotoxic, for release of the cytosolic enzyme, lactate dehydrogenase, from the epithelium. These samples are kept in the refrigerator if the assays are to be conducted within 24 hours, or the samples are subaliquotted and kept frozen at −80° C. until thawed once for assays. Repeated freeze-thaw cycles are to be avoided.
EIA kit (p/n S-1178(EIAH6101) was purchased from Peninsula Laboratories Inc. (Division of BACHEM, San Carlos, Calif., 800-922-1516). 17×120 mm polypropylene conical tubes (p/n 352097, Falcon, Franklin Lakes, N.J.) were used for all sample preparations. Eight standards were used for PTH quantitation. The rest of the assay procedure was the same as the kit inserts.
The instant study was designed to evaluate the effect of PN159 itself or in combination with additional permeation enhancers on PTH permeation. The PN159 concentrations evaluated are 25, 50, and 100 μM. The additional permeation enhancers are 45 mg/ml M-β-CD, 1 mg/ml DDPC, and 1 mg/ml EDTA. Sorbitol was used as a tonicifier (146-190 mM) to adjust the osmolarity of formulations to 220 mOsm/kg. The formulation pH was fixed at 4.5. PTH was chosen as a model peptide in this example. 2 mg/ml PTH was combined with PN159 with or without additional permeation enhancers. The combination was tested using an in vitro epithelial tissue model to monitor PTH permeation, transepithelial electrical resistance (TER), and the cytotoxicity of the formulation by LDH assay.
The effect of PN159 on permeation of MC-4RA was evaluated in this study.

Data set [2] can be described thus: MTT assay (cell viability), in vitro epithelial tissue model. In kind it is cell-based. The conditions noted are these: human, pH 5; galantamine lactate 40 mg/ml and PN159 at all concentrations tested (25, 50, 100 μM). (Tetrazolium dyes change colour on reduction, which living cells bring about.)
In data set [3] the test system is EpiAirway™ Cell Membrane (mucosal epithelial cell layer). Put plainly: Transepithelial electrical resistance (TER), EpiAirway in vitro epithelial tissue model. It counts as cell-based. Particulars: for TER(x)/TER(159) +/− SEM*: mean values from multiple repeats. An excerpt: One “kit” consists of 24 units.
A. Respiratory airway epithelial cells form tight junctions in vivo as well as in vitro, and thereby restrict the flow of solutes across the tissue. These junctions confer a transepithelial resistance of several hundred ohms×cm^2 in excised airway tissues. In the MatTek EpiAirway™ units, the transepithelial electrical resistance (TER) is reported by the manufacturer to be routinely around 1000 ohms×cm^2. […] The porous membrane-bottomed units without cells, conversely, provide only minimal transmembrane resistance (approximately 5-20 ohms×cm^2).
B. Accurate determinations of TER require that the electrodes of the ohmmeter be positioned over a significant surface area above and below the membrane, and that the distance of the electrodes from the membrane be reproducibly controlled. The method for TER determination recommended by MatTek and employed for all experiments herein employs an “EVOM”™ epithelial voltohmmeter and an “ENDOHM”™ tissue resistance measurement chamber from World Precision Instruments, Inc., Sarasota, Fla.
D. Determinations of TER are made with 1.5 mL of PBS in the chamber and 350 μL of PBS in the membrane-bottomed unit being measured. The top electrode is adjusted to a position just above the membrane of a unit containing no cells (but containing 350 μL of PBS) and then fixed to ensure reproducible positioning. The resistance of a cell-free unit is typically 5-20 ohms×cm^2 (“background resistance”).
G. The unit is gently blotted free of excess PBS on its exterior surface only before being placed into the chamber (containing a fresh 1.5 mL aliquot of PBS). An aliquot of 350 μL PBS is added to the unit before the top electrode is placed on the chamber and the TER is read on the EVOM meter.
I. The units are read in the following sequence: all sham-treated controls, followed by all formulation-treated samples, followed by a second TER reading of each of the sham-treated controls. All TER values are reported as a function of the surface area of the tissue.
TER was calculated as: TER=(R1−Rb)×A Where R1 is resistance of the insert with a membrane, Rb is the resistance of the blank insert, and A is the area of the membrane (0.6 cm^2). The effect of pharmaceutical formulations comprising intranasal delivery-enhancing agents, for example, permeabilizing peptides as measured by TER across the EpiAirway™ Cell Membrane (mucosal epithelial cell layer). Permeabilizing peptides are applied to the EpiAirway™ Cell Membrane at a concentration of 1.0 mM. A decrease in TER value relative to the control value (control=approximately 1000 ohms-cm^2; normalized to 100.) indicates a decrease in cell membrane resistance and an increase in mucosal epithelial cell permeability.
The formulation pH was fixed at 4.5.

[4] abbreviates: Example 7, length changes, relative to PN159.
Setting [5] is: Table 6, D-amino acid substitutions, relative to PN159.
[6] abbreviates: Table 9, hydrophobic faces, relative to PN159.

In the case of `CC(C)C[C@H](NC(=O)[C@H](C)NC(=O)[C@H](CCCCN)NC(=O)[C@H](CC(C)C)NC(=O)[C@H](C)NC(=O)[C@H](CC(C)C)NC(=O)[C@H](CCCCN)NC(=O)[C@H](CC(C)C)NC(=O)[C@H](C)NC(=O)[C@H](CC(C)C)NC(=O)[C@@H](N)CCCCN)C(=O)N[C@@H](CCCCN)C(=O)N[C@@H](C)C(=O)N[C@@H](C)C(=O)N[C@@H](CC(C)C)C(=O)N[C@@H](CCCCN)C(=O)N[C@@H](CC(C)C)C(=O)N[C@@H](C)C(N)=O` [PN159], the “Perm(x)/Perm(159) +/− SEM*” value in data set [1] (setting [4]) is 1.00; in data set [1] (setting [6]) it was 1.00 +/− 0.13. For the same compound, the “permeation of MC-4RA” value in data set [1] (PN159 5, 25, 50, 100 μM, 10 mg/ml MC-4RA, 45 mg/ml M-β-CD, pH 4) is on record as “significantly enhance epithelial permeation”. In addition, the PTH1-34 permeation result in data set [1] (PN159 25, 50, 100 μM without additional enhancers) was “Significant increase in PTH permeation”; in data set [1] (PN159 combined with 45/1/1 mg/ml M-b-CD/DDPC/EDTA), “Additional increase in PTH permeation”. Moreover, the “Perm(x)/Perm(159) +/− SEM” value in data set [1] (setting [5]) was 1.00 +/− 0.13. Besides, the viability in data set [2] was > 80%. Further, in data set [3] (Example 2, PTH formulation study, applied to apical side), the “TER reduction (in words)” value is given as “Higher TER reduction was observed with increasing PN159 concentration”. Further, the “TER(x)/TER(159) +/− SEM*” value in data set [3] (setting [4]) and in data set [3] (setting [6]) was 1.00 +/− 0.14 throughout. Besides, the “TER(x)/TER(159) +/− SEM” value in data set [3] (setting [5]) is given as 1.00 +/− 0.14. Besides, the “Relative TER Decrease” value in data set [3] (Table 8, amino acid substitutions, relative to PN159) is 1.0.
